The results in this text go back to patent publication US8536124B2, “Artificial decapeptide for inducing vitellogenesis in fish” (National Pingtung University of Science & Technology, priority 2010, dated 2013).

The test system of this assay is Mugil cephalus. The assay can be described thus: Ovum maturation (vitellogenesis) of Mugil cephalus after implantation of sustained-release capsules. The assay is classed as in vivo. The settings on record: M. cephalus, implanted in May, diameter in October; preparation 400 μg, estradiol 1000 μg; FIG. 3. From the text:
Additionally, a method for inducing vitellogenesis in fish can also be developed, by implanting the preparation of the present invention into body cavity or body wall of bony fish, for example in lateral muscle or abdomen cavity, in order to inducing the sexual maturation and vitellogenesis in the bony fish. With reference to FIG. 1, the preparation of the present invention is preferably implanted into lateral muscle adjacent to dorsal fin 21 of a bony fish 2 by an injector 1 in the present embodiment. Accordingly, the decapeptide in the preparation can be sustaining released into the bony fish for long-term inducing the hypophysis to synthesize and secrete gonadotropin (GtH) so that the vitellogenesis and breeding of the bony fish can be achieved.
Referring to FIG. 3, the responses of Mugil cephalus on decapeptide-induction are shown. In the present embodiment, several farming M. cephalus, are prepared and randomly assigned into five groups including (b1), (b2) ovaprin group, (b3) estradiol group, (b4) MixT group and (b5) control group. […] Moreover, ova of each group of M. cephalus are collected and analyzed monthly after implantation for monitoring the vitellogenesis in each group of M. cephalus. The ovum maturation of each group of M. cephalus is also determined in accordance with the size and accumulation of the ovum.

The structures appear in SMILES notation.

Take `C[C@]12CC[C@@H]3c4ccc(O)cc4CC[C@H]3[C@@H]1CC[C@@H]2O` [estradiol]: the oocyte diameter entry is on record as “about 380 μm”.
